According to patent US8927717B1, “Thiochromeno[2,3-c]quinolin-12-one derivatives, preparation method and application thereof” (National Defense Medical Center, priority 2014, dated 2015):

Assays:
[1] = system: CCRF-CEM; type: cell-based; conditions: Leukemia; 10^−5 molar; 48 hours; SRB
[2] = system: HL-60(TB); type: cell-based; conditions: Leukemia; 10^−5 molar; 48 hours; SRB
[3] = system: K-562; type: cell-based; conditions: Leukemia; 10^−5 molar; 48 hours; SRB
[4] = system: MOLT-4; type: cell-based; conditions: Leukemia; 10^−5 molar; 48 hours; SRB
[5] = system: RPMI-8226; type: cell-based; conditions: Leukemia; 10^−5 molar; 48 hours; SRB
[6] = system: SR; type: cell-based; conditions: Leukemia; 10^−5 molar; 48 hours; SRB
[7] = system: A549/ATCC; type: cell-based; conditions: Non-small cell lung cancer; 10^−5 molar; 48 hours; SRB
[8] = system: HOP-62; type: cell-based; conditions: Non-small cell lung cancer; 10^−5 molar; 48 hours; SRB
[9] = system: HOP-92; type: cell-based; conditions: Non-small cell lung cancer; 10^−5 molar; 48 hours; SRB
[10] = system: NCI-H226; type: cell-based; conditions: Non-small cell lung cancer; 10^−5 molar; 48 hours; SRB
[11] = system: NCI-H23; type: cell-based; conditions: Non-small cell lung cancer; 10^−5 molar; 48 hours; SRB
[12] = system: NCI-H460; type: cell-based; conditions: Non-small cell lung cancer; 10^−5 molar; 48 hours; SRB
[13] = system: NCI-H522; type: cell-based; conditions: Non-small cell lung cancer; 10^−5 molar; 48 hours; SRB
[14] = system: COLO 205; type: cell-based; conditions: Colon cancer; 10^−5 molar; 48 hours; SRB
[15] = system: HCC-2998; type: cell-based; conditions: Colon cancer; 10^−5 molar; 48 hours; SRB
[16] = system: HCT-116; type: cell-based; conditions: Colon cancer; 10^−5 molar; 48 hours; SRB
[17] = system: HCT-15; type: cell-based; conditions: Colon cancer; 10^−5 molar; 48 hours; SRB
[18] = system: HT29; type: cell-based; conditions: Colon cancer; 10^−5 molar; 48 hours; SRB
[19] = system: KM12; experiment: cells; type: cell-based; conditions: Colon cancer; 10^−5 molar; 48 hours; SRB
[20] = system: SW-620; type: cell-based; conditions: Colon cancer; 10^−5 molar; 48 hours; SRB
[21] = system: SF-268; type: cell-based; conditions: CNS cancer; 10^−5 molar; 48 hours; SRB
[22] = system: SF-295; type: cell-based; conditions: CNS cancer; 10^−5 molar; 48 hours; SRB
[23] = system: SF-539; type: cell-based; conditions: CNS cancer; 10^−5 molar; 48 hours; SRB
[24] = system: SNB-19; type: cell-based; conditions: CNS cancer; 10^−5 molar; 48 hours; SRB
[25] = system: SNB-75; type: cell-based; conditions: CNS cancer; 10^−5 molar; 48 hours; SRB
[26] = system: U251; type: cell-based; conditions: CNS cancer; 10^−5 molar; 48 hours; SRB
[27] = system: LOX IMVI; type: cell-based; conditions: Melanoma; 10^−5 molar; 48 hours; SRB
[28] = system: MALME-3M; type: cell-based; conditions: Melanoma; 10^−5 molar; 48 hours; SRB
[29] = system: M14; type: cell-based; conditions: Melanoma; 10^−5 molar; 48 hours; SRB
[30] = system: MDA-MB-435; type: cell-based; conditions: Melanoma; 10^−5 molar; 48 hours; SRB
[31] = system: SK-MEL-2; type: cell-based; conditions: Melanoma; 10^−5 molar; 48 hours; SRB
[32] = system: SK-MEL-28; type: cell-based; conditions: Melanoma; 10^−5 molar; 48 hours; SRB
[33] = system: SK-MEL-5; type: cell-based; conditions: Melanoma; 10^−5 molar; 48 hours; SRB
[34] = system: UACC-257; type: cell-based; conditions: Melanoma; 10^−5 molar; 48 hours; SRB
[35] = system: UACC-62; type: cell-based; conditions: Melanoma; 10^−5 molar; 48 hours; SRB
[36] = system: IGROV1; type: cell-based; conditions: Ovarian cancer; 10^−5 molar; 48 hours; SRB
[37] = system: OVCAR-4; type: cell-based; conditions: Ovarian cancer; 10^−5 molar; 48 hours; SRB
[38] = system: OVCAR-5; type: cell-based; conditions: Ovarian cancer; 10^−5 molar; 48 hours; SRB
[39] = system: OVCAR-8; type: cell-based; conditions: Ovarian cancer; 10^−5 molar; 48 hours; SRB
[40] = system: NCI/ADR-RES; type: cell-based; conditions: Ovarian cancer; 10^−5 molar; 48 hours; SRB
[41] = system: SK-OV-3; type: cell-based; conditions: Ovarian cancer; 10^−5 molar; 48 hours; SRB
[42] = system: 786-0; type: cell-based; conditions: Renal cancer; 10^−5 molar; 48 hours; SRB
[43] = system: A498; type: cell-based; conditions: Renal cancer; 10^−5 molar; 48 hours; SRB
[44] = system: ACHN; type: cell-based; conditions: Renal cancer; 10^−5 molar; 48 hours; SRB
[45] = system: CAKI-1; type: cell-based; conditions: Renal cancer; 10^−5 molar; 48 hours; SRB
[46] = system: RXF 393; type: cell-based; conditions: Renal cancer; 10^−5 molar; 48 hours; SRB
[47] = system: SN12C; type: cell-based; conditions: Renal cancer; 10^−5 molar; 48 hours; SRB
[48] = system: TK-10; type: cell-based; conditions: Renal cancer; 10^−5 molar; 48 hours; SRB
[49] = system: UO-31; type: cell-based; conditions: Renal cancer; 10^−5 molar; 48 hours; SRB
[50] = system: PC-3; type: cell-based; conditions: Prostate cancer; 10^−5 molar; 48 hours; SRB
[51] = system: DU-145; type: cell-based; conditions: Prostate cancer; 10^−5 molar; 48 hours; SRB
[52] = system: MCF7; type: cell-based; conditions: Breast cancer; 10^−5 molar; 48 hours; SRB
[53] = system: MDA-MB-231/ATCC; type: cell-based; conditions: Breast cancer; 10^−5 molar; 48 hours; SRB
[54] = system: HS 578T; type: cell-based; conditions: Breast cancer; 10^−5 molar; 48 hours; SRB
[55] = system: BT-549; type: cell-based; conditions: Breast cancer; 10^−5 molar; 48 hours; SRB
[56] = system: T-47D; type: cell-based; conditions: Breast cancer; 10^−5 molar; 48 hours; SRB
[57] = system: MDA-MB-486; type: cell-based; conditions: Breast cancer; 10^−5 molar; 48 hours; SRB
[58] = system: 60 cancer cell lines; experiment: NCI 60-cell screen, SRB, whole panel (mean, delta, range); type: cell-based; conditions: 10^−5 molar, 48 hours, SRB

CNc1nc2ccccc2c2c(=O)c3cc(Cl)ccc3sc12 [Compound N1, 10-Chloro-6-methylamino-12H-thiochromeno[2,3-c]quinolin-12-one]
Growth percent CCRF-CEM [1]: 79.77%
Growth percent HL-60(TB) [2]: 131.66%
Growth percent K-562 [3]: 40.69%
Growth percent MOLT-4 [4]: 86.86%
Growth percent RPMI-8226 [5]: 93.10%
Growth percent SR [6]: 47.76%
Growth percent A549/ATCC [7]: 51.68%
Growth percent HOP-62 [8]: 79.39%
Growth percent HOP-92 [9]: 59.15%
Growth percent NCI-H226 [10]: 73.53%
Growth percent NCI-H23 [11]: 44.39%
Growth percent NCI-H460 [12]: 73.84%
Growth percent NCI-H522 [13]: 97.00%
Growth percent COLO 205 [14]: 94.82%
Growth percent HCC-2998 [15]: 105.34%
Growth percent HCT-116 [16]: 32.49%
Growth percent HCT-15 [17]: 68.73%
Growth percent HT29 [18]: 114.79%
Growth percent KM12 [19]: 68.75%
Growth percent SW-620 [20]: 84.37%
Growth percent SF-268 [21]: 70.58%
Growth percent SF-295 [22]: 89.04%
Growth percent SF-539 [23]: 59.86%
Growth percent SNB-19 [24]: 96.48%
Growth percent SNB-75 [25]: 67.29%
Growth percent U251 [26]: 85.19%
Growth percent LOX IMVI [27]: 44.95%
Growth percent MALME-3M [28]: 72.46%
Growth percent M14 [29]: 105.85%
Growth percent MDA-MB-435 [30]: 84.97%
Growth percent SK-MEL-2 [31]: 110.10%
Growth percent SK-MEL-28 [32]: 83.41%
Growth percent SK-MEL-5 [33]: 80.13%
Growth percent UACC-257 [34]: 91.23%
Growth percent UACC-62 [35]: 77.66%
Growth percent IGROV1 [36]: 67.97%
Growth percent OVCAR-4 [37]: 71.33%
Growth percent OVCAR-5 [38]: 86.91%
Growth percent OVCAR-8 [39]: 31.61%
Growth percent NCI/ADR-RES [40]: 70.95%
Growth percent SK-OV-3 [41]: 88.67%
Growth percent 786-0 [42]: 95.51%
Growth percent A498 [43]: 82.89%
Growth percent ACHN [44]: 84.47%
Growth percent CAKI-1 [45]: 68.09%
Growth percent RXF 393 [46]: 84.52%
Growth percent SN12C [47]: 92.52%
Growth percent TK-10 [48]: 81.21%
Growth percent UO-31 [49]: 65.34%
Growth percent PC-3 [50]: 61.41%
Growth percent DU-145 [51]: 80.29%
Growth percent MCF7 (Table 2: MCF) [52]: 23.26%
Growth percent MDA-MB-231/ATCC [53]: 66.58%
Growth percent HS 578T [54]: 82.63%
Growth percent BT-549 [55]: 108.49%
Growth percent T-47D [56]: 42.13%
Growth percent MDA-MB-486 [57]: 8.75%
Growth percent, Delta ([58]; delta over the cell panel): 66.31%
Growth percent, Mean ([58]; mean over the cell panel): 75.06%
Growth percent, Range ([58]; range over the cell panel): 122.91%
melting point: 237 to 238 °C
